Legend:
CD-i mice = experiment: TQL-1055 HP-β-CD dose ranging study: weight loss and survival; conditions: for Deaths (D 7) / Deaths (D 21): CD-1 mice, I.M.; for Deaths (D 7): post dose 1; for Deaths (D 21): post dose 2 (day 14)
[1] = test system: mouse strains (C57BL/6J, BALB/cJ, CD-i); experiment: Tolerability (mortality) of soluble TQL-1055 formulations across three mouse strains; format: in vivo
Description: The tolerability of soluble TQL-1055 formulations, including TQL-1055 FA (free acid) HP-β-CD and TQL-1055 ISKS (in situ potassium salt) HP-β-CD formulations, administered over a range of doses was examined across three mouse strains (C57BL/6J, BALB/cJ, CD-i). The following experimental groups were used. I.M. administration was performed.
The mortality rate 7 days after injection was observed.
A Logrank (Mantel-Cox) test was performed to assess survival distributions of the foregoing groups.

[2] = test system: cancer patients; well (non-cancer) adult and child recipients; conditions: cited from earlier work
[3] = no antigen, HPβCD dose equivalent to group 4
[4] = with 0.1 μg PR8 HA, HPβCD dose equivalent to group 4

## 2-hydroxypropyl beta-cyclodextrin [HPβCD alone]
CD-i mice; [3]
  Deaths (D 7): 0/10
  Deaths (D 21): 0/10
CD-i mice; [4]
  Deaths (D 7): 0/10
  Deaths (D 21): 0/10
CD-i mice; mice, TQL-1055 without HP-β-CD, or HP-β-CD without TQL-1055, any dose tested
  Mortality (follow-on studies, text): did not result in mortality

## CC1O[C@@H](OC2C(O)[C@@H](NC(=O)CCCCCCCCCCC(=O)O)C(CO)O[C@H]2OC(=O)[C@]23CCC(C)(C)CC2C2=CCC4C5(C)CC[C@H](O)[C@](C)(C=O)[C@@H]5CC[C@]4(C)[C@]2(C)CC3O)C(O)C(O)[C@H]1O[C@@H]1OC[C@@H](O)C(O)C1O (stereo partly drawn) [TQL1055 FA]
CD-i mice; no antigen, 50 μg
  Deaths (D 7): 0/10
  Deaths (D 21): 0/10
CD-i mice; no antigen, 100 μg
  Deaths (D 7): 0/10
  Deaths (D 21): 0/10
CD-i mice; no antigen, 200 μg
  Deaths (D 7): 0/10
  Deaths (D 21): 0/10
CD-i mice; with 0.1 μg PR8 HA, 50 μg
  Deaths (D 7): 0/10
  Deaths (D 21): 0/10
CD-i mice; with 0.1 μg PR8 HA, 100 μg
  Deaths (D 7): 0/10
  Deaths (D 21): 0/10
CD-i mice; with 0.1 μg PR8 HA, 198.68 μg
  Deaths (D 7): 0/10
  Deaths (D 21): 0/10

## QS-21
CD-i mice; with 0.1 μg PR8 HA, 25 μg
  Deaths (D 7): 0/10
  Deaths (D 21): 0/10
CD-i mice; with 0.1 μg PR8 HA, 50 μg
  Deaths (D 7): 0/10
  Deaths (D 21): 0/10
CD-i mice; with 0.1 μg PR8 HA, 100 μg
  Deaths (D 7): 2/10
  Deaths (D 21): 0/8
[1]; BALB/cJ mice, 20 μg I.M., 7 days after injection
  Deaths: 0/10
[1]; BALB/cJ mice, 40 μg I.M., 7 days after injection
  Deaths: 0/10
[1]; BALB/cJ mice, 60 μg I.M., 7 days after injection
  Deaths: 0/10
[1]; BALB/cJ mice, 80 μg I.M., 7 days after injection
  Deaths: 0/10
[1]; BALB/cJ mice, 100 μg I.M., 7 days after injection
  Deaths: 0/10
[1]; C57BL/6J mice, 20 μg I.M., 7 days after injection
  Deaths: 0/10
[1]; C57BL/6J mice, 40 μg I.M., 7 days after injection
  Deaths: 2/10
[1]; C57BL/6J mice, 60 μg I.M., 7 days after injection
  Deaths: 0/10
[1]; C57BL/6J mice, 80 μg I.M., 7 days after injection
  Deaths: 5/10
[1]; C57BL/6J mice, 100 μg I.M., 7 days after injection
  Deaths: 10/10
[1]; C57BL/6J, BALB/cJ, CD-1 compared
  Role of mouse strain in tolerability: C57BL/6 mice appear to be more sensitive
[1]; CD-1 mice, 20 μg I.M., 7 days after injection
  Deaths: 0/10
[1]; CD-1 mice, 40 μg I.M., 7 days after injection
  Deaths: 0/10
[1]; CD-1 mice, 60 μg I.M., 7 days after injection
  Deaths: 0/10
[1]; CD-1 mice, 80 μg I.M., 7 days after injection
  Deaths: 0/10
[1]; CD-1 mice, 100 μg I.M., 7 days after injection
  Deaths: 0/10
[1]; all three mouse strains, 20-100 μg I.M., 7 days after injection
  Mortality: at least some mice in the other groups (including QS-21) died
[2]; cancer patients, above it significant local and systemic side effects arise
  tolerated dose: 100 to 150 µg
[2]; well (non-cancer) adult and child recipients
  highest practical tolerable dose: 25 to 50 µg
